Experimental data reported in patent US20230108004A1, “TREATMENT OF EPILEPSY WITH PLINABULIN OR HALIMIDE OR DIKETOPIPERAZINE DERIVATIVES” (Katholieke Universiteit Leuven, priority 2017, published 2023).

How the values were obtained:
[1] = system: EKP-induced seizure behavior in zebrafish larvae; test: Zebrafish ethyl ketopentenoate (EKP) seizure model, behavioral analysis; assay type: in vivo, zebrafish (Danio rerio)
Description: Experiments were performed as described in Zhang et al. (2017) Sci. Rep. 7, 7195. In brief, a single 7 dpf larva was placed in each well of a 96-well plate and treated with either VHC (1% DMSO) or test compound (1% DMSO) in a 100 μL volume. Larvae were incubated in dark for 2 hours at 28° C., whereafter 100 μL of either VHC (1% DMSO) or 1 mM EKP (1% DMSO, 500 μM working concentration) was added to each well. Next, within 5 minutes the 96-well plate was placed in an automated tracking device (ZebraBox Viewpoint, France) and larval behavior was video recorded for 30 minutes. The complete procedure was performed in dark conditions using infrared light. Total locomotor activity was recorded by ZebraLab software (Viewpoint, France) and expressed in actinteg units, which is the sum of pixel changes detected during the defined time interval (5 minutes). Larval behavior was depicted as mean actinteg units per 5 minutes during the 30 minute recording period and over consecutive time intervals. Data are pooled from independent experiments and expressed as mean±SEM.

[2] = system: drug-resistant psychomotor seizures induced by corneal electrical stimulation; test: Mouse 6-Hz (44 mA) psychomotor seizure model; assay type: in vivo, Male NMRI mice; details: 30 min before stimulation, VHC 28 s
Description: Experiments were performed as previously described. In brief, NMRI mice (average weight 32 g, range 28-36 g) were randomly divided into control and treatment groups (n=6-11). 50 μL (injection volume was adjusted to the individual weight) of VHC (PEG200:DMSO 1:1) or treatment (an ASD or test compound dissolved in VHC) was i.p. injected in mice and after 30 minutes psychomotor seizures were induced by low frequency, long duration corneal electrical stimulation (6 Hz, 0.2 ms rectangular pulse width, 3 s duration, 44 mA) using an ECT Unit 5780 (Ugo Basile, Comerio, Italy). Mice were manually restrained and a drop of ocular anesthetic (0.5% lidocaine) was applied to the corneas before stimulation. Following electrical current stimulation, the mouse was released in a transparent cage for behavioral observation, which was video-recorded. […] In addition, facial and mouth jerking as well as head nodding were observed occasionally. Seizure durations were measured during the experiment by experienced researchers, familiar with the different seizure behaviors. In addition, seizure durations were determined by blinded video analysis to confirm or correct the initial observations. Data are expressed as mean±SD.

[3] = system: PTZ-induced epileptiform discharges in zebrafish larvae; test: Zebrafish PTZ seizure model, electrophysiology (local field potential recordings from the optic tectum); assay type: in vivo, zebrafish (Danio rerio); details: 2 hours, 10 min recording
Description: Non-invasive LFP recordings were measured from the midbrain (optic tectum) of 7 dpf zebrafish larvae pre-incubated with VHC only, PTZ only, compound and VHC, or compound and PTZ [Zdebik, et al. (2013) PLoS One 8, 6e10. Experiments were performed as described in Copmans, et al. (2018) Neurochem. Int. 112, 124-133 and Copmans et al. (2018) ACS chemical neuroscience.]. In brief, larvae were incubated for approximately 2 hours with VHC (1% DMSO) or test compound (1% DMSO) in a 100 μL volume. After incubation, an equal volume of VHC (embryo medium) or 40 mM PTZ (20 mM working concentration) was added to the well for 15 minutes prior to recording. These steps occurred at 28° C., while further manipulation and electrophysiological recordings occurred at room temperature (±21° C.). The larva was embedded in 2% low melting point agarose (Invitrogen) and the signal electrode (an electrode inside a soda-glass pipet (1412227, Hilgenberg) pulled with a DMZ Universal Puller (Zeitz, Germany), diameter±20 microns, containing artificial cerebrospinal fluid (ACSF: 124 mM NaCl, 10 mM glucose, 2 mM KCl, 2 mM MgSO4, 2 mM CaCl2), 1.25 mM KH2PO4, and 26 mM NaHCO3, 300-310 mOsmols)) was positioned on the skin covering the optic tectum. A differential extracellular amplifier (DAGAN, USA) amplified the voltage difference between the signal (measured by the signal electrode) and the reference electrode. The differential signal was band pass filtered at 0.3-300 Hz and digitized at 2 kHz via a PCI-6251 interface (National instruments, UK) using WinEDR (John Dempster, University of Strathclyde, UK). A grounding electrode grounded the electrical system. All electrodes were connected with ACSF. Each recording lasted 600 seconds. Manual analysis was completed by quantification of the number, cumulative duration, and mean duration of epileptiform-like events with Clampfit 10.2 software (Molecular Devices Corporation, USA). An electrical discharge was considered epileptiform if it was a poly-spiking event comprising at least 3 spikes with a minimum amplitude of three times the baseline amplitude and a duration of at least 100 milliseconds. Data are expressed as mean±SD.

[4] = system: EKP-induced epileptiform discharges in zebrafish larvae; test: Zebrafish EKP seizure model, electrophysiology (local field potential recordings); assay type: in vivo, zebrafish (Danio rerio); details: 12.5 μg/mL, 2 hours; 10 min recording; p≤0.05
Description: Non-invasive LFP recordings were measured from the midbrain (optic tectum) of 7 dpf zebrafish larvae pre-incubated with VHC only, EKP only, compound and VHC, or compound and EKP. Larvae were incubated for approximately 2 hours with VHC (1% DMSO) or test compound (1% DMSO). After incubation, VHC (1% DMSO) or 1 mM EKP (1% DMSO, 500 μM working concentration) was added to the well for 15 minutes prior to recording. These steps occurred at 28° C., while further manipulation and electrophysiological recordings occurred at room temperature (±21° C.). The larva was embedded in 2% low melting point agarose (Invitrogen) and the signal electrode was positioned on the skin covering the optic tectum and electrophysiological recordings (room temperature) were performed as described above for the zebrafish PTZ seizure model and as described in Zhang et al. (2017) Sci. Rep. 7, 7195. Manual analysis was completed by quantification of the number, cumulative duration, and mean duration of epileptiform-like events with Clampfit 10.2 software (Molecular Devices Corporation, USA). An electrical discharge was considered epileptiform if it was a poly-spiking event comprising at least 3 spikes with a minimum amplitude of three times the baseline amplitude and a duration of at least 100 milliseconds. Data are expressed as mean±SD.

[5] = system: PTZ-induced seizure behavior in zebrafish larvae; test: Zebrafish pentylenetetrazole (PTZ) seizure model, behavioral analysis; assay type: in vivo, zebrafish (Danio rerio); details: 2 hours incubation; for antiseizure activity of the separated enantiomers: S-enantiomer only significant at 200 μg/mL (p<0.01)
Description: Experiments were performed as described in Copmans et al. (2018) Neurochem. Int. 112, 124-133; Afrikanova et al (2013) PLoS One 8, e54166 and Orellana-Paucar et al. (2012) Epilepsy Behav 24, 14-22. In brief, a single 7 dpf larva was placed in each well of a 96-well plate and treated with either VHC (1% DMSO) or test compound (1% DMSO) in a 100 μL volume. Larvae were incubated in dark for 2 hours at 28° C., whereafter 100 μL of either VHC (embryo medium) or 40 mM PTZ (20 mM working concentration) was added to each well. Next, within 5 minutes the 96-well plate was placed in an automated tracking device (ZebraBox Viewpoint, France) and larval behavior was video recorded for 30 minutes. The complete procedure was performed in dark conditions using infrared light. Total locomotor activity was recorded by ZebraLab software (Viewpoint, France) and expressed in actinteg units, which is the sum of pixel changes detected during the defined time interval (5 minutes). Larval behavior was depicted as mean actinteg units per 5 minutes during the 30 minute recording period and over consecutive time intervals. Data are expressed as mean±SD for single experiments with regards to screening and as mean±SEM for single experiments and for independent experiments of which the means or data are pooled.
In the first secondary screen three replicate wells were used per sample (100 μg/mL) tested and each experimental plate contained 12 internal control wells. In the second secondary screen six replicate wells were used per sample and concentration tested (100, 33, and 11 μg/mL), again 12 internal control wells were used per experimental plate.

zebrafish larvae = test: Zebrafish toxicity evaluation: maximum tolerated concentration (MTC); assay type: in vivo, zebrafish (Danio rerio); details: highest concentration without death, toxicity or locomotor impairment
Description: Maximum tolerated concentration (MTC) was determined prior to further experiments and used as the highest test concentration. Experiments were performed as described in Copmans et al. (2018) Neurochem. Int. 112, 124-133. before. In brief, the MTC was investigated by exposing 12 larvae of 6 or 7 dpf to a range of concentrations in a 100 μL volume during 18 hours. The following parameters were investigated after 2 and 18 hours of exposure: touch response, morphology, posture, edema, signs of necrosis, swim bladder, and heartbeat. […] In case no MTC was reached, the highest soluble concentration was used.
Maximum tolerated concentration (MTC) was determined prior to further experiments and used as the highest test concentration. Experiments were performed as described in Copmans et al. (2018). Neurochem. Int. 112, 124-133. In brief, the MTC was investigated by exposing 12 larvae of 7 dpf to a range of concentrations in a 100 μL volume during 18 hours. The following parameters were investigated after 2 and 18 hours of exposure: touch response, morphology, posture, edema, signs of necrosis, swim bladder, and heartbeat.

CC(C)(C)c1[nH]cnc1/C=c1\[nH]c(=O)/c(=C/c2ccccc2)[nH]c1=O [plinabulin]
normal swimming behavior in comparison to VHC-treated larvae ([1]; 3.13, 6.25 and 12.5 μg/mL, compound+VHC, zebrafish EKP seizure model): significantly lowered | EKP-induced seizure behavior ([1]; all concentrations tested (0.78-12.5 μg/mL), 2 hours incubation, 30 min recording (FIG. 7B)): significantly lowered | mean seizure duration ([2]; 5 mg/kg i.p., not significant): 21 s | mean seizure duration ([2]; 10 mg/kg i.p., p<0.05): 12.5 s | mean seizure duration ([2]; 20 mg/kg i.p., p<0.01): 15 s | mean seizure duration ([2]; 40 mg/kg i.p., p<0.05): 15 s | number of PTZ-induced epileptiform events ([3]; 12.5 μg/mL): non-significantly lowered | percentage of larvae with PTZ-induced epileptiform activity ([3]; 12.5 μg/mL): non-significantly lowered | cumulative duration of PTZ-induced epileptiform events ([3]; 12.5 μg/mL, p≤0.05): significantly lowered | cumulative duration of EKP-induced epileptiform events [4]: significantly lowered | lowering of the percentage of larvae with EKP-induced epileptiform activity [4]: 40% | number of EKP-induced epileptiform events [4]: significantly lowered | PTZ-induced seizure behavior ([5]; 1.56-12.5 μg/mL, 30 min recording, p≤0.01 (1.56), p≤0.001 (3.13, 6.25, 12.5) (FIG. 7A)): significantly lowered | PTZ-induced seizure behavior ([5]; 12.5 and 3.13 μg/mL, 30 min recording period, p≤0.001 (FIG. 4C)): significantly lowered

C=CC(C)(C)c1nc[nH]c1/C=C1\NC(=O)C(Cc2ccccc2)NC1=O (stereo not drawn) [halimide]
cumulative duration of PTZ-induced epileptiform events ([3]; MTC (200 μg/mL), p≤0.001): significantly lowered | lowering of the percentage of larvae with PTZ-induced epileptiform activity ([3]; MTC (200 μg/mL), p≤0.001): ~60% | number of PTZ-induced epileptiform events ([3]; MTC (200 μg/mL), p≤0.001): significantly lowered | PTZ-induced seizure behavior ([5]; halimide at its MTC, 30 min recording period, p≤0.05): significantly lowered | maximum tolerated concentration (MTC) (zebrafish larvae): 200 µg/mL

C=CC(C)(C)c1nc[nH]c1/C=C1\NC(=O)C(Cc2ccccc2)NC1=O (single isomer, unassigned) [S-enantiomer]
antiseizure activity of the separated enantiomers [5]: active

C=CC(C)(C)c1[nH]cnc1C=C1NC(=O)C(Cc2ccccc2)NC1=O (single isomer, unassigned) [R-enantiomer]
antiseizure activity of the separated enantiomers [5]: no significant effect
